Experimental data: US10654828B2 (NOVARTIS AG, priority 2017, dated 2020)
Like-named read-outs stand apart in the source and are kept apart here.

Assays:
FoxO3a = FoxO3a inhibition: GFP-FoxO3a nuclear to cytoplasmic translocation reporter assay; assay type: cell-based; conditions: U2OS GFP-FoxO3a H212R cells, serum starved overnight, compound 30 minutes, ratio of nuclear to cytosolic GFP intensity, DMSO control 0%, read-out: FoxO AC50
Description: (§1) Phosphorylation of AKT on S473 and FoxO3a nuclear to cytoplasmic translocation were used as readouts of PI3K/Akt/mTOR pathway activation downstream of growth factor signaling.
(§2) Reporter cell line. U2OS GFP-FoxO3a H212R reporter cell line was established by transducing U2OS cells with the retroviral plasmid pLEGFP-C1 containing FoxO3a H212R transgene and selecting for G418 resistant clones.
(§3) Reporter assay. U2OS GFP-FoxO3a H212R cells were plated in 384-well plates at 4000 cells per well in 30 microliters of McCoy's 5 A medium containing 10% FBS. On day 1 the cells were washed with serum free medium and serum starved overnight. On day 2 the cells were treated with different doses of the compounds for 30 minutes, fixed with 4% Paraformaldehyde for 1 hour and stained with Phospho-AKT (Ser473) antibody (Cell Signaling Technology, catalog #4060) overnight at 4 degrees Celsius. After nuclei staining with Hoechst 33342 (Life Technologies, catalog # H3570) the plates were imaged with InCell 2000 (GE Healthcare Bio-Sciences). FoxO3a inhibition activity is calculated as the ratio of nuclear to cytosolic GFP intensity in percent. AKT activation is measured as the total cellular intensity of Phospho-AKT antibody staining in percent. DMSO control is set as 0% activity.

AKT = AKT activation: Phospho-AKT (Ser473) antibody staining in reporter cells; assay type: cell-based; conditions: U2OS GFP-FoxO3a H212R cells, serum starved overnight, compound 30 minutes, total cellular intensity of Phospho-AKT (Ser473) staining, DMSO control 0%
Description: as §1, §2, §3

Compound | AC50 (FoxO3a; Homo sapiens, U2OS, 0.5 h) | AC50 (AKT; Homo sapiens, U2OS, 0.5 h) | AC50 (FoxO3a) | AC50 (AKT)
Cc1cc(C(N)=O)nn1-c1ccc2c(ccn2Cc2ccc(C3=CCN4CCCC3C4)cc2)c1 (single isomer, unassigned) [Example 13, 1-(1-(4-(1-azabicyclo[3.3.1]non-3-en-4-yl)benzyl)-1H-indol-5-yl)-5-methyl-1H-pyrazole-3-carboxamide] | 437 nM | 1530 nM |  | 
Cc1cc(C(N)=O)nn1-c1ccc2c(ccn2Cc2ccc([C@H]3C[C@H]4CNC[C@H]4C3)cc2)c1 [Example 39, 5-methyl-1-(1-(4-((3aR,5r,6aS)-octahydrocyclopenta[c]pyrrol-5-yl)benzyl)-1H-indol-5-yl)-1H-pyrazole-3-carboxamide] | 175 nM | 907 nM |  | 
Cc1cc(C(N)=O)nn1-c1ccc2c(ccn2Cc2ccc(-c3ccc(NS(C)(=O)=O)cc3)cc2)c1 [Example 1-33, 5-methyl-1-(1-((4′-(methylsulfonamido)-[1,1′-biphenyl]-4-yl)methyl)-1H-indol-5-yl)-1H-pyrazole-3-carboxamide] | 82 nM | 351 nM |  | 
Cc1cc(C(N)=O)nn1-c1ccc2c(ccn2Cc2ccc(C3=CCC4(CC3)CN(C)C4)cc2)c1 [Example 15-3, 5-methyl-1-(1-(4-(2-methyl-2-azaspiro[3.5]non-6-en-7-yl)benzyl)-1H-indol-5-yl)-1H-pyrazole-3-carboxamide] | 96 nM | 398 nM |  | 
Cc1cc(C(N)=O)nn1-c1ccc2c(ccn2Cc2ccc(-c3cccc(C(=O)N4CCN(C)CC4)c3)cc2)c1 [Example 1-12, 5-methyl-1-(1-((3′-(4-methylpiperazine-1-carbonyl)-[1,1′-biphenyl]-4-yl)methyl)-1H-indol-5-yl)-1H-pyrazole-3-carboxamide] | 124 nM | 346 nM |  | 
Cc1cc(C(N)=O)nn1-c1ccc2c(ccn2Cc2ccc(-c3ccc(C(=O)N4CCN(C)CC4)cc3)cc2)c1 [Example 36, 5-methyl-1-(1-((4′-(4-methylpiperazine-1-carbonyl)-[1,1′-biphenyl]-4-yl)methyl)-1H-indol-5-yl)-1H-pyrazole-3-carboxamide] | 49 nM | 39 nM |  | 
Cc1cc(C(N)=O)nn1-c1ccc2c(ccn2Cc2ccc(-c3ccc(S(=O)(=O)CCO)cc3)cc2)c1 [Example 18, 1-(1-((4′-((2-hydroxyethyl)sulfonyl)-[1,1′-biphenyl]-4-yl)methyl)-1H-indol-5-yl)-5-methyl-1H-pyrazole-3-carboxamide] | 57 nM | 110 nM |  | 
Cc1cc(C(N)=O)nn1-c1ccc2c(ccn2Cc2ccc(C3CCN(C)CC3(C)C)cc2)c1 (single isomer, unassigned) [Example 16-3, 5-methyl-1-(1-(4-(1,3,3-trimethylpiperidin-4-yl)benzyl)-1H-indol-5-yl)-1H-pyrazole-3-carboxamide] |  |  | 1040 nM | 3190 nM
Cc1cc(C(N)=O)nn1-c1ccc2c(c1)c(C1=CCOCC1)cn2Cc1ccc(-c2ccc(S(C)(=O)=O)cc2)cc1 [Example 19-1, 1-(3-(3,6-dihydro-2H-pyran-4-yl)-1-((4′-(methylsulfonyl)-[1,1′-biphenyl]-4-yl)methyl)-1H-indol-5-yl)-5-methyl-1H-pyrazole-3-carboxamide] | 52 nM | 81 nM |  | 
Cc1cc(C(N)=O)nn1-c1ccc2c(ccn2Cc2ccc(-c3cnc(N(C)C)nc3)cc2)c1 [Example 1-36, 1-(1-(4-(2-(dimethylamino)pyrimidin-5-yl)benzyl)-1H-indol-5-yl)-5-methyl-1H-pyrazole-3-carboxamide] | 477 nM | 1050 nM |  | 
Cc1cc(C(N)=O)nn1-c1ccc2c(ccn2Cc2ccc(C#CCN(C)C)cc2)c1 [Example 12, 1-(1-(4-(3-(dimethylamino)prop-1-yn-1-yl)benzyl)-1H-indol-5-yl)-5-methyl-1H-pyrazole-3-carboxamide] | 402 nM | 1190 nM |  | 
Cc1cc(C(N)=O)nn1-c1ccc2c(ccn2Cc2ccc(N3CCNCC3)cc2)c1 [Example 11-1, 5-methyl-1-(1-(4-(piperazin-1-yl)benzyl)-1H-indol-5-yl)-1H-pyrazole-3-carboxamide] | 4080 nM | > 10000 nM |  | 
Cc1cc(C(N)=O)nn1-c1ccc2c(ccn2Cc2ccc(-c3ccc(CN4CCC[C@H]4CO)cc3)cc2)c1 [Example 34-1, (S)-1-(1-((4′-((2-(hydroxymethyl)pyrrolidin-1-yl)methyl)-[1,1′-biphenyl]-4-yl)methyl)-1H-indol-5-yl)-5-methyl-1H-pyrazole-3-carboxamide] | 119 nM | 184 nM |  | 
Cc1cc(C(N)=O)nn1-c1ccc2c(ccn2Cc2ccc(CC3CCN(C)C3)cc2)c1 (racemic) [Example 31, rac-5-methyl-1-(1-(4-((1-methylpyrrolidin-3-yl)methyl)benzyl)-1H-indol-5-yl)-1H-pyrazole-3-carboxamide] | 350 nM | 747 nM |  | 
Cc1cc(C(N)=O)nn1-c1ccc2c(ccn2Cc2ccc(-c3ccc4c(c3)CC(=O)N4)cc2)c1 [Example 1-31, 5-methyl-1-(1-(4-(2-oxoindolin-5-yl)benzyl)-1H-indol-5-yl)-1H-pyrazole-3-carboxamide] | 55 nM | 138 nM |  | 
COc1cc(-c2ccc(Cn3ccc4cc(-n5nc(C(N)=O)cc5C)ccc43)cc2)ccn1 [Example 1-24, 1-(1-(4-(2-methoxypyridin-4-yl)benzyl)-1H-indol-5-yl)-5-methyl-1H-pyrazole-3-carboxamide] | 123 nM | 349 nM |  | 
Cc1cc(C(N)=O)nn1-c1ccc2c(ccn2Cc2ccc(C3CCN(C)CC3(C)C)cc2)c1 (single isomer, unassigned) [Example 16-2, 5-methyl-1-(1-(4-(1,3,3-trimethylpiperidin-4-yl)benzyl)-1H-indol-5-yl)-1H-pyrazole-3-carboxamide] |  |  | 161 nM | 1220 nM
Cc1cc(C(N)=O)nn1-c1ccc2c(ccn2Cc2ccc([C@H]3C[C@@H]4CN(C)C[C@@H]4C3)cc2)c1 [Example 26-2, 5-methyl-1-(1-(4-((3aR,5s,6aS)-2-methyloctahydrocyclopenta[c]pyrrol-5-yl)benzyl)-1H-indol-5-yl)-1H-pyrazole-3-carboxamide] | 80 nM | 362 nM |  | 
Cc1cc(C(N)=O)nn1-c1ccc2c(ccn2Cc2ccc(C3CCN(C)CC3(C)C)cc2)c1 (stereo not shown) [Example 16-1, 5-methyl-1-(1-(4-(1,3,3-trimethylpiperidin-4-yl)benzyl)-1H-indol-5-yl)-1H-pyrazole-3-carboxamide] | 171 nM | 966 nM |  | 
Cc1cc(C(N)=O)nn1-c1ccc2c(ccn2Cc2ccc(N3CC4CN(C)CC4C3)cc2)c1 (stereo not shown) [Example 11-3, 5-methyl-1-(1-(4-(5-methylhexahydropyrrolo[3,4-c]pyrrol-2(1H)-yl)benzyl)-1H-indol-5-yl)-1H-pyrazole-3-carboxamide] | 1160 nM | 2970 nM |  | 
Cc1cc(C(N)=O)nn1-c1ccc2c(ccn2Cc2ccc(C3=C[C@H]4CN(C)C[C@H]4C3)cc2)c1 (racemic) [Example 25, (cis)-5-methyl-1-(1-(4-(2-methyl-1,2,3,3a,4,6a-hexahydrocyclopenta[c]pyrrol-5-yl)benzyl)-1H-indol-5-yl)-1H-pyrazole-3-carboxamide] | 215 nM | 1120 nM |  | 
Cc1cc(C(N)=O)nn1-c1ccc2c(ccn2Cc2ccc(-c3ccc(S(=O)(=O)CCN4CCN(C)CC4)cc3)cc2)c1 [Example 19, 5-methyl-1-(1-((4′-((2-(4-methylpiperazin-1-yl)ethyl)sulfonyl)-[1,1′-biphenyl]-4-yl)methyl)-1H-indol-5-yl)-1H-pyrazole-3-carboxamide] | 61 nM | 142 nM |  | 
Cc1cc(C(N)=O)nn1-c1ccc2c(ccn2Cc2ccc(-c3ccc(S(C)(=O)=O)cc3)cc2)c1 [Example 1-6, 5-methyl-1-(1-((4′-(methylsulfonyl)-[1,1′-biphenyl]-4-yl)methyl)-1H-indol-5-yl)-1H-pyrazole-3-carboxamide] | 101 nM | 250 nM |  | 
Cc1cc(C(N)=O)nn1-c1ccc2c(ccn2Cc2ccc(-c3ccc(CO)cc3)cc2)c1 [Example 1-32, 1-(1-((4′-(hydroxymethyl)-[1,1′-biphenyl]-4-yl)methyl)-1H-indol-5-yl)-5-methyl-1H-pyrazole-3-carboxamide] | 205 nM | 578 nM |  | 
Cc1cc(C(N)=O)nn1-c1ccc2c(ccn2Cc2ccc(-c3ccc4[nH]ncc4c3)cc2)c1 [Example 1-17, 1-(1-(4-(1H-indazol-5-yl)benzyl)-1H-indol-5-yl)-5-methyl-1H-pyrazole-3-carboxamide] | 88 nM | 199 nM |  | 
Cc1cc(C(N)=O)nn1-c1ccc2c(ccn2Cc2ccc([C@@H]3C[C@@H]4CN(CC5CC5)C[C@@H]4C3)cc2)c1 [Example 40, 1-(1-(4-((3aR,5r,6aS)-2-(cyclopropylmethyl)octahydrocyclopenta[c]pyrrol-5-yl)benzyl)-1H-indol-5-yl)-5-methyl-1H-pyrazole-3-carboxamide] | 161 nM | 1220 nM |  | 
